In US7326540B2, “Methods for identifying compounds that modulate stabilization of secretase-associated proteins” (priority 2003, dated 2008):
Where a SMILES comes first, the peptide text is derived from it. The star is where a group is joined. Cbz = O=C(OCc1ccccc1)*; CH2F = FC*

Key:
β-secretase = assay: C99 levels by Western blot (WO2) in CAB cells; type: cell-based, Chinese Hamster; conditions: STS-induced apoptosis, CHO cells expressing APP751 and BACE (CAB)
Method: (§1) Chinese Hamster Ovary (CHO) cells expressing APP751 and BACE (CAB), CHO cells expressing full-length APP and wild-type PS1 (CHO-APP751/PS1) or expressing C99 and wild-type PS1 (CHO-CC99/PS1), H4 human neuroglioma cells expressing APP751 (H4-APP751), mouse embryonic fibroblast (MEF), embryonic stem (ES) cells, and human epithelial A431 cells were grown as described previously (Marambaud, P. et al., Embo J 21, 1948-56 (2002); Cai, H. et al., Nat Neurosci 4, 233-4 (2001); Sato, N. et al., Nat Cell Biol 2, 863-70 (2000); Puglielli, L., Ellis, B. C., Saunders, A. J. & Kovacs, D. M., J Biol Chem 278, 19777-83 (2003); Wolfe, M. S. et al., Nature 398, 513-7 (1999)). For the induction of apoptosis, we used staurosporine or etoposide (Calbiochem (EMD Biosciences, San Diego, Calif.)). For Aβ measurements, cells were seeded at the density of 0.5×10^6 cells per well in 6 well plates. After 48 hours, cells were treated with either STS (1 μM) for 6 hours. In order to inhibit caspase activation a sister plate of cells was pre-treated with zVAD ([…], Enzyme Systems Products) for 1 hour before STS treatment. For time-course experiments, cells were seeded at the density of 2×10^6 cells per 100 mm dish and treated with STS (1 μM) or etoposide (100 μg/mL). At different time points (0, 3, 6, 9, 12 and 24 hours), the cells were scraped, centrifuged and then lysed in buffer containing 1% NP40. […]

[1] = test system: γ-secretase complex proteins; assay: γ-secretase complex protein levels by Western blot in A431 cells; type: cell-based, human; conditions: after 6 hours of STS treatment
Method: as §1

[2] = test system: γ-secretase complex proteins; assay: γ-secretase complex protein levels by Western blot in H4 cells; type: cell-based, human; conditions: zVAD treatment
Method: Protein levels of PS1, nicastrin, Pen2 and Aph1A (components of the γ-secretase complex) were determined by Western blot (WB) analysis in H4 cells. […] The immature form of nicastrin appeared to be increased earlier (6 hrs) concurrently with caspase-3 activation (FIG. 5A). Furthermore, PS1-NTF, PS1-CTF, Pen2 and Aph1A were also up regulated (FIG. 5A). STS treatment also led to the generation of a caspase-mediated fragment of PS1-CTF (indicated by an arrow as a PS1-CTF). […] As a control for protein loading, the same blot was reprobed with an anti-Cu, Zn-SOD Ab showing that Cu, Zn-SOD protein levels were not increased.

CN[C@@H]1C[C@H]2O[C@@](C)([C@@H]1OC)n1c3ccccc3c3c4c(c5c6ccccc6n2c5c31)C(=O)NC4 [STS, staurosporine]
levels of C99 (β-secretase): increased | immature nicastrin levels increase [1]: ~1.5 fold | protein levels of PS1, Pen-2 and Aph1a [1]: unchanged

COC(=O)C[C@H](NC(=O)[C@H](C)NC(=O)[C@@H](NC(=O)OCc1ccccc1)C(C)C)C(=O)CF [zVAD] (Cbz-Val-Ala-Asp(OMe)-CH2F)
upregulation of γ-secretase complex proteins during STS-induced apoptosis [2]: prevented upregulation
